Laboratory results taken from ChEMBL document CHEMBL1201862, “PubChem BioAssay data set” (2004).
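Results reflect a 48-hour exposure of cells in 96-well plates to compound at five concentrations. Abbreviation: GI50, concentration required for 50% inhibition of growth.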 The source made the active and inactive calls. No stated cut-off is given here; in the data, active = GI50 up to about 1.1 µM and inactive = higher.

Columns and labels:
Test in all cases: NCI anticancer screen, dose series, 48 h
DLD-1 = test system: DLD-1
HOP-18 = test system: HOP-18
DMS-114 = test system: DMS-114
SNB-78 = test system: SNB-78
XF498 = test system: XF498
M19-MEL = test system: M19-MEL
DMS-273 = test system: DMS-273
LXFL 529 = test system: LXFL 529
RXF 631 = test system: RXF 631

Measured: GI50

COc1ccc([C@H]2CC(=O)N3CCCC3N2)cc1 (some centres not stated)
inactive: DLD-1 > 100 µM | HOP-18 43 µM | DMS-114 > 100 µM | SNB-78 > 100 µM | XF498 > 100 µM | M19-MEL > 100 µM | DMS-273 > 100 µM | LXFL 529 > 100 µM

N/C(=N\N=C=C1C(=O)Nc2ccc(F)cc21)NO
inactive: DLD-1 > 100 µM | DMS-114 > 100 µM | SNB-78 > 100 µM | XF498 > 100 µM | M19-MEL > 100 µM | DMS-273 > 100 µM | RXF 631 > 100 µM | LXFL 529 > 100 µM

O=NN(CCCl)C(=O)N[C@H]1CC[C@@H](C(=O)O)CC1
inactive: DLD-1 > 100 µM | HOP-18 > 69.5 µM | DMS-114 52.7 µM | SNB-78 > 100 µM | XF498 > 100 µM | M19-MEL > 100 µM | DMS-273 > 100 µM | RXF 631 > 100 µM | LXFL 529 > 100 µM

CC(C)(C)OC(=O)NC(CO)c1cccc(OCc2ccccc2)c1 (configuration not stated)
inactive: DLD-1 > 100 µM | HOP-18 > 100 µM | DMS-114 23.1 µM | SNB-78 83.4 µM | XF498 > 100 µM | M19-MEL > 89.7 µM | DMS-273 53.2 µM | LXFL 529 > 100 µM

COC(=O)c1cc(Br)c(Br)n1C
inactive: DLD-1 81.8 µM | HOP-18 > 100 µM | DMS-114 > 100 µM | SNB-78 > 100 µM | XF498 > 100 µM | M19-MEL > 100 µM | DMS-273 > 100 µM | RXF 631 > 100 µM | LXFL 529 > 100 µM

Nc1ccc(C(=O)N/C(=C\c2cccc([N+](=O)[O-])c2)c2nc3c4c(ccc3[nH]2)C(=O)c2ccccc2C4=O)cc1
inactive: DLD-1 11.2 µM | HOP-18 11 µM | DMS-114 8.18 µM | SNB-78 > 100 µM | XF498 > 100 µM | M19-MEL > 100 µM | DMS-273 27.5 µM | RXF 631 29.9 µM | LXFL 529 16.5 µM

CCOC(=O)C1S/C(=N\c2ccc(Cl)c(Cl)c2)N=C1C (configuration not stated)
inactive: DLD-1 25.1 µM | HOP-18 96.8 µM | XF498 35.6 µM | M19-MEL 26.2 µM | DMS-273 41.2 µM | RXF 631 58.6 µM | LXFL 529 34.4 µM

Brc1ccc2c(c1)C1(c3cc(Br)ccc3-2)c2cc(Br)ccc2-c2ccc(Br)cc21
inactive: DLD-1 > 100 µM | HOP-18 > 100 µM | DMS-114 > 100 µM | SNB-78 > 100 µM | XF498 > 100 µM | M19-MEL > 100 µM | DMS-273 > 100 µM | RXF 631 > 100 µM | LXFL 529 > 100 µM

Cn1cnc([N+](=O)[O-])c1Sc1nc2cccnc2[nH]1
inactive: DLD-1 25.6 µM | HOP-18 70.1 µM | DMS-114 24.8 µM | SNB-78 > 100 µM | XF498 45.8 µM | DMS-273 1.61 µM | RXF 631 1.73 µM | LXFL 529 39.2 µM

O=C(c1ccccc1)C(c1ccccc1)C1(O)C(=O)Nc2c(Cl)ccc(Cl)c21 (configuration not stated)
inactive: DLD-1 18.2 µM | HOP-18 24.2 µM | DMS-114 17 µM | SNB-78 25.5 µM | DMS-273 14.4 µM | LXFL 529 17.2 µM

Cc1nn2c(=O)n(-c3cccc(-n4nnc5c(-c6ccccc6)c(C)nn5c4=O)c3C)nnc2c1-c1ccccc1
inactive: DLD-1 22.8 µM | HOP-18 4.94 µM | DMS-114 13.8 µM | SNB-78 82.2 µM | XF498 20.9 µM | M19-MEL 23.6 µM | DMS-273 66.8 µM | LXFL 529 24.7 µM

C[N+](C)=c1nc(N2CCc3ccccc3C2)ss1.[O-][Cl+3]([O-])([O-])[O-]
inactive: DLD-1 90.4 µM | HOP-18 > 100 µM | DMS-114 60.1 µM | SNB-78 > 100 µM | M19-MEL > 100 µM | DMS-273 > 100 µM | RXF 631 > 100 µM | LXFL 529 69.3 µM

CC(C)(C)NN=C1C(C)(C)C(=NNC(C)(C)C)C1(C)C
inactive: DLD-1 > 100 µM | DMS-114 > 100 µM | SNB-78 > 100 µM | XF498 > 100 µM | M19-MEL > 100 µM | DMS-273 > 100 µM | LXFL 529 > 100 µM

O=C(O)CCSC(=O)Nc1cccc2ccccc12
inactive: DLD-1 > 100 µM | HOP-18 > 100 µM | DMS-114 > 100 µM | SNB-78 > 100 µM | XF498 > 100 µM | M19-MEL > 100 µM | DMS-273 > 100 µM | RXF 631 > 100 µM | LXFL 529 > 100 µM

CC1CCC(O)C(C(O)CC2CC(=O)N(C)C(=O)C2)C1 (configuration not stated)
inactive: DLD-1 > 100 µM | HOP-18 > 100 µM | DMS-114 > 100 µM | SNB-78 > 100 µM | XF498 > 100 µM | M19-MEL > 100 µM | DMS-273 > 100 µM | RXF 631 > 100 µM | LXFL 529 > 100 µM

C=C(C)C1CCC2(C)CC1c1c(c(C)cc3c1[nH]c1ccccc13)O2 (configuration not stated)
inactive: DLD-1 > 25 µM | DMS-114 > 25 µM | XF498 > 25 µM | M19-MEL > 25 µM | DMS-273 > 25 µM | LXFL 529 > 25 µM

C/C(CN1C(=O)c2ccccc2C1=O)=N\NS(C)(=O)=O
inactive: DLD-1 > 100 µM | HOP-18 > 100 µM | DMS-114 > 100 µM | SNB-78 > 100 µM | XF498 > 100 µM | M19-MEL > 100 µM | DMS-273 > 100 µM | LXFL 529 > 100 µM

CCOC(=O)C(C)(c1c(C)[nH]c2ccccc12)c1c(C)[nH]c2ccccc12
inactive: DLD-1 23.7 µM | DMS-114 15.7 µM | SNB-78 17.5 µM | XF498 21.8 µM | DMS-273 14.1 µM | LXFL 529 51.4 µM

CCCCCCCCCC(=O)Oc1cccc2onc(C)c12
inactive: DLD-1 > 100 µM | HOP-18 > 100 µM | DMS-114 > 100 µM | SNB-78 > 100 µM | M19-MEL > 100 µM | DMS-273 > 100 µM | RXF 631 > 100 µM | LXFL 529 > 100 µM

CCO/C=C\C12CCCC1NC(c1ccccc1)(c1ccccc1)O2 (configuration not stated)
inactive: DLD-1 32.3 µM | DMS-114 30.6 µM | SNB-78 54.8 µM | M19-MEL 24.7 µM | DMS-273 32.7 µM | LXFL 529 28.1 µM

C=CCC1([C@H](C)[C@@H](OC(C)=O)c2cc(OC)c(OC)c(OC)c2)C[C@@H](OC)CCC1=O (some centres not stated)
inactive: DLD-1 16.2 µM | DMS-114 12.4 µM | XF498 17.9 µM | M19-MEL 15.6 µM | LXFL 529 14.3 µM

Oc1ncnc2c1nnn2CCCCCCCCCCCCn1nnc2c(O)ncnc21
inactive: DLD-1 > 91.2 µM | HOP-18 24.2 µM | DMS-114 7.06 µM | SNB-78 19.2 µM | M19-MEL > 100 µM | DMS-273 27.5 µM | LXFL 529 33.6 µM

O=C(Cc1ccccc1)NN1C(=O)C(Cl)C1c1ccc(O)cc1 (configuration not stated)
inactive: DLD-1 > 100 µM | HOP-18 > 100 µM | DMS-114 > 100 µM | M19-MEL > 100 µM | DMS-273 > 100 µM

COc1ccc(/C=C\c2cc(OC)c(OC(C)=O)c(OC)c2)cc1
inactive: DLD-1 14.2 µM | DMS-114 4.78 µM | SNB-78 25.5 µM | XF498 30.3 µM | M19-MEL 8.91 µM | DMS-273 5.31 µM | RXF 631 23.5 µM | LXFL 529 19.7 µM

COC(=O)N1[C@H]2Cc3c(OC)c(C)c(OC)c(OC)c3[C@@H]1/C(=C\c1cc(OC)c(OC)c(C)c1OC)N(Cc1ccccc1)C2=O
inactive: DLD-1 76.9 µM | HOP-18 41.8 µM | DMS-114 14.7 µM | M19-MEL 19.9 µM | DMS-273 13.2 µM | LXFL 529 22 µM
